US10564168B2, “Method for treating male infertility based on NOX5 protein levels in sperm” (priority 2013, dated 2020)

Key:
[1] = test system: human spermatozoa; experiment: Superoxide assay, luminol-based Diogenes chemiluminescence, whole spermatozoa; assay type: cell-based; conditions: for effect on ionomycin-induced superoxide chemiluminescence signal: 1 μM ionomycin; for effect on ionomycin-induced superoxide chemiluminescence signal / effect on H2O2-induced superoxide chemiluminescence signal: SOD 400 U/ml, DPI 10 μM, BAPTA 100 μM; for effect on H2O2-induced superoxide chemiluminescence signal: 100 μM H2O2, GKT136901 0.5 μM
Source text: (§1) Human semen samples were obtained from patient donors as a part of their clinical evaluation for fertility and reproductive health status. Portions of the samples not required for clinical analyses were de-identified and made available for the research protocols described. Under these conditions, the Institutional Review Board determined that the study is exempt from requirements for protocol approval and informed consent. Semen was collected by masturbation into sterile plastic containers and allowed to liquefy for at least 30 min before being processed. The samples were centrifuged (500 g, 15 min) to separate the seminal plasma from spermatozoa, and the pellet washed twice in phosphate-buffered normal saline pH 7 with 10 mM glucose (PBS-G). The spermatozoa were then counted in a hemocytometer chamber, resuspended in PBS-G at 10^9/ml, and used for superoxide assays. Sperm samples containing leukocytes detected by microscopic examination were excluded from the study. For selected experiments, motile spermatozoa were collected using the swim-up procedure (Vijayakumar et al. (1986) Arch. Androl. 17, 223-230; Parrish and Foote (1987) J. Androl. 8, 259-266). Briefly, the spermatozoa were sedimented by centrifugation (500 g, 15 min) and the tube was then incubated upright for 60 min at 37° C. Motile spermatozoa that progressed from the pellet into the supernatant (swim-up fraction) were collected by aspiration and counted.
Superoxide generation was measured using a luminol-based chemiluminescence assay (Diogenes reagent, National Diagnostics, Atlanta, Ga.). […] Spermatozoa were suspended at 10^9/ml in PBS-G. A 100 μl aliquot of the Diogenes reagent was mixed with 2×10^7 spermatozoa and incubated at 37° C. for 2-4 minutes. Superoxide generation was measured at baseline and after stimulation with ionomycin (1 μM), phorbol myristate acetate (PMA, 1 μg/ml), or H2O2 (100 μM and other concentrations as indicated). Chemiluminescence was measured every 30-60 sec for up to 10-15 min using a Clarity™ BioTek luminometer and an integration time of 5 sec.
Spermatozoa were pre-incubated for 5 min prior to the superoxide assay with 400 U/ml superoxide dismutase (SOD), 10 μM diphenylene iodonium (DPI), or 100 μM 1,2-Bis (2-aminophenoxy) ethane-N,N,N′,N′-tetraacetic acid (BAPTA). […] In some experiments, cells were pre-exposed to the NOX inhibitor 2-(2-chlorophenyl)-4-methyl-5-(pyridin-2-ylmethyl)-1H-pyrazolo[4,3-c]pyridine-3,6(2H,5H)-dione (GKT136901, 0.5 μM and other concentrations as indicated) for 10 min before exposure to either H2O2 or PMA.

[2] = test system: human spermatozoa; experiment: Swim-up procedure, sperm motility; assay type: cell-based; conditions: GKT136901 0.5 μM or DPI 10 μM; 100 μM H2O2
Source text: as §1

[3] = test system: HV1 proton channels in K562 and K562/NOX5 cells; experiment: Perforated-patch clamp recording of proton currents; assay type: cell-based, human
Source text: Micropipettes were pulled in several stages using a Flaming-Brown automatic pipette puller (Sutter Instruments, San Rafael, Calif.) from 7052 glass (Garner Glass Co., Claremont, Calif., USA), coated with Sylgard 184 (Dow Corning Corp., Midland, Mich.), heat polished to a tip resistance between 2 and 10 MΩ. Electrical contact with the pipette solution was achieved using a chloride silver wire. The reference electrode was made from an Ag—AgCl wire connected to the bath through an agar bridge made with Ringer solution (160 mM NaCl, 4.5 mM KCl, 2 mM CaCl2, 1 mM MgCl2, 5 mM Hepes adjusted to pH 7.4). Current signal from the Axopatch 200B (Axon Instruments, Foster City, Calif.) was recorded on PC through a Lab View SCB-68 (National Instruments, Austin, Tex.). Further data analysis was made with Origin 7.5. Seals were formed in Ringer solution in the bath, and the potential was zeroed when the pipette was in contact with the cell. Most measurements were done between 21 and 25° C.
K562 cells were transferred on chips or pipette into the recording chamber. To leave internal signaling pathways undisturbed, the perforated patch configuration was used. Low access resistance was usually reached after 5-10 minutes. The perforated patch recording bath and pipette solution contained 50 mM NH^4+ in the form of (NH4)2SO4, 2 mM MgCl2, 5 mM Bes or Pipes buffer, and 1 mM EGTA adjusted to pH 7.0 with TMAOH. […]

[4] = biological target: T1, NOX1 (Homo sapiens, UniProt Q9Y5S8); conditions: cited from earlier work
T1 sequence (Q9Y5S8 1-564): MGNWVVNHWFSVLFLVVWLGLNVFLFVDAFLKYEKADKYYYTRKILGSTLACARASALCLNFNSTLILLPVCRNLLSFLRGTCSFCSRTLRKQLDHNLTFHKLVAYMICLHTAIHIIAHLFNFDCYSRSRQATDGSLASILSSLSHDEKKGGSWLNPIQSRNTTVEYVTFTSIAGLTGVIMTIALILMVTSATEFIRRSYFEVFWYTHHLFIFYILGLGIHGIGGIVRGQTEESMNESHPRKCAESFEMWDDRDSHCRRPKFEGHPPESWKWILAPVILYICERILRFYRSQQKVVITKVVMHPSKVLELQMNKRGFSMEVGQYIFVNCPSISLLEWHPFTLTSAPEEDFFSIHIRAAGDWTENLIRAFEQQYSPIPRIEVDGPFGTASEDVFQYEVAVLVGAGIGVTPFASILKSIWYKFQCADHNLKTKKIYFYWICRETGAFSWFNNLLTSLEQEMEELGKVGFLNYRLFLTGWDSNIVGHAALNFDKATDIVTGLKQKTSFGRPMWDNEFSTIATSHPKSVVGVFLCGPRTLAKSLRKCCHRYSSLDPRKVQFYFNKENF
T1 sequence (P13498 1-195 partner): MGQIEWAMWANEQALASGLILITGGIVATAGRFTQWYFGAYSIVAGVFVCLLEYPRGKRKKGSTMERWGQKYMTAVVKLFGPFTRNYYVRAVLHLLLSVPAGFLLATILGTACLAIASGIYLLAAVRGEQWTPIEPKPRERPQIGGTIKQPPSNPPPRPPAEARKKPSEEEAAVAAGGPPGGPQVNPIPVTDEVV

[5] = biological target: T2, NOX2 (Homo sapiens, UniProt P04839); conditions: NOX1 and NOX4 versus NOX2; cited from earlier work
T2 sequence (P04839 2-570 limits assumed): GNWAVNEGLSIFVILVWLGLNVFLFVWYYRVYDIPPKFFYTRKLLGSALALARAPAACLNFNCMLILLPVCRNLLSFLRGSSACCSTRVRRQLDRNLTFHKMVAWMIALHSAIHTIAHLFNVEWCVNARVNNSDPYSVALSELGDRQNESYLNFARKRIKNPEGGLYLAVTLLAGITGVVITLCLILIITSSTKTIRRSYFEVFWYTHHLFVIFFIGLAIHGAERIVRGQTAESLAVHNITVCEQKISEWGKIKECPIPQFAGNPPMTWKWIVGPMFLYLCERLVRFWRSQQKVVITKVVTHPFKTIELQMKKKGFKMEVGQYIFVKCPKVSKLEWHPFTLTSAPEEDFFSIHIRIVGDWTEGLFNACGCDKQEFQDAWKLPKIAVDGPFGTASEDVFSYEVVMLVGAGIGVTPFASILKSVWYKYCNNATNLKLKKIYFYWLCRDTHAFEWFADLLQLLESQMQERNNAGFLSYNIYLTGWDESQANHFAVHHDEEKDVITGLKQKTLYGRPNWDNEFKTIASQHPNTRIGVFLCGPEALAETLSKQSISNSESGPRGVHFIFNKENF
T2 sequence (P13498 1-195 partner): T1 sequence (P13498 1-195 partner)

[6] = biological target: T3, NOX5 (Homo sapiens, UniProt Q96PH1); conditions: same conditions as Laleu et al.; GenKyoTex, personal communication; read-out: inhibitory constant for NOX5; cited from earlier work
T3 sequence (Q96PH1 1-765): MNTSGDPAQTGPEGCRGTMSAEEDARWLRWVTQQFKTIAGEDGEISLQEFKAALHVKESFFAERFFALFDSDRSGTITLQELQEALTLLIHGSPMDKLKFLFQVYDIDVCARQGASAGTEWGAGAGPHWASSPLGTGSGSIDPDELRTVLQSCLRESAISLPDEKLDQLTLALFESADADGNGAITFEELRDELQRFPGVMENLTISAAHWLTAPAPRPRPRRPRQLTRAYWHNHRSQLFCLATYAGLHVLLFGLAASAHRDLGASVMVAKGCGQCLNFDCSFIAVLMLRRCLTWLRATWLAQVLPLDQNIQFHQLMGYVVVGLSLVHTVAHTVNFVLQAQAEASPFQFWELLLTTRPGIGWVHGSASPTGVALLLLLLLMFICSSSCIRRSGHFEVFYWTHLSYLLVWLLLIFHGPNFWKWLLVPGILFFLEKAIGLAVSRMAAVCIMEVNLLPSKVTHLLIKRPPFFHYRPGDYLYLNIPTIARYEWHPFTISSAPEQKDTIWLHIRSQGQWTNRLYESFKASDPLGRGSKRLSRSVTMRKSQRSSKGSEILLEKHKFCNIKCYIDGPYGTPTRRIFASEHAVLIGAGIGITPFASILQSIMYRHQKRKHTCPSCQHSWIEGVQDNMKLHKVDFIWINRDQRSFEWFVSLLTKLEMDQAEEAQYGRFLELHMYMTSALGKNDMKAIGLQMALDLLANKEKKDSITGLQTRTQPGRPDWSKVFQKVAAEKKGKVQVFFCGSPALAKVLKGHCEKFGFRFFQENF

For `O=C(O)CN(CC(=O)O)c1ccccc1OCCOc1ccccc1N(CC(=O)O)CC(=O)O` [BAPTA, 1,2-Bis (2-aminophenoxy) ethane-N,N,N′,N′-tetraacetic acid], the “effect on ionomycin-induced superoxide chemiluminescence signal” value [1] was “blocked” and the “effect on H2O2-induced superoxide chemiluminescence signal” value [1] was “nearly completely abrogated”.

With `c1ccc2c(c1)[I+]c1ccccc1-2` [DPI, diphenylene iodonium] the “effect on ionomycin-induced superoxide chemiluminescence signal” value [1] was “blocked”, the “effect on H2O2-induced superoxide chemiluminescence signal” value [1] was “nearly completely abrogated” and the “effect of pre-incubation on the H2O2 effect on motility” value [2] was “abrogated”.

With `CN(C)CCCn1cc(C2=C(c3c[nH]c4ccccc34)C(=O)NC2=O)c2ccccc21` [GFX, GF109203X] the “effect on PMA response of proton channels” value ([3]; GFX 3 μM after 60 nM PMA) was “Most features of the PMA response of proton channels were reversed”.

In the case of `Cc1c2c(=O)n(-c3ccccc3Cl)[nH]c2cc(=O)n1Cc1ccccn1` [GKT136901, 2-(2-chlorophenyl)-4-methyl-5-(pyridin-2-ylmethyl)-1H-pyrazolo[4,3-c]pyridine-3,6(2H,5H)-dione], the “effect on PMA-stimulated superoxide production” value ([1]; 1 μg/ml PMA) is reported as “inhibited the stimulation of superoxide production by PMA in a concentration-dependent manner”, the “effect on H2O2-induced superoxide chemiluminescence signal” value [1] is reported as “nearly completely abrogated” and the “potency in inhibiting PMA-stimulated superoxide production, sperm cells as compared with neutrophils” value ([1]; human spermatozoa versus human neutrophils) is reported as roughly 10 fold. For the same compound, the “effect of pre-incubation on the H2O2 effect on motility” value [2] was “abrogated”, the Ki [4] was 160 ± 10 nM and the “selectivity over NOX2” value [5] was roughly 9 fold. The Ki [6] was 450 ± 10 nM.

For `CCCCCCCCCCCCCC(=O)O[C@@H]1[C@@H](C)[C@@]2(O)[C@@H](C=C(CO)C[C@]3(O)C(=O)C(C)=C[C@@H]23)[C@@H]2C(C)(C)[C@]12OC(C)=O` [PMA, phorbol myristate acetate], the “response of proton channels to stimulation” value ([3]; 60 nM PMA) was “enhanced gating mode”.

For `C[C@H](CCC(=O)O)C[C@H](C)C[C@H](C)C(=O)/C=C(\O)[C@H](C)C[C@H](C)C/C=C/[C@@H](C)[C@@H](O)[C@@H](C)[C@@H](O)C[C@@H]1CC[C@@](C)([C@H]2CC[C@@](C)([C@@H](C)O)O2)O1` [ionomycin], the “induction of superoxide production by spermatozoa” value ([1]; ionomycin 1 μM, PMA 1 μg/ml or H2O2 100 μM, 10 min) was “induced vigorous superoxide production”.
